Source: publication PMC6977318, “In vitro and in situ study on characterization and mechanism of the intestinal absorption of 2,3,5,4′-tetrahydroxy-stilbene-2-O-β-D-glucoside” (BMC Pharmacology & Toxicology, 2020)
Blank lines part the entries; values can stand above or below the compound they belong to.

Key:
MRP2 [1] = biological target: T1, MRP2 (Rattus norvegicus, UniProt Q63120); test: Effect of MRP2 inhibitor on intestinal absorption of TSG, in situ perfusion; format: in vivo
T1 construct: from tissue; host or cells: rat small intestine, perfused in situ
T1 sequence (Q63120 whole entry, the tested form may be a part): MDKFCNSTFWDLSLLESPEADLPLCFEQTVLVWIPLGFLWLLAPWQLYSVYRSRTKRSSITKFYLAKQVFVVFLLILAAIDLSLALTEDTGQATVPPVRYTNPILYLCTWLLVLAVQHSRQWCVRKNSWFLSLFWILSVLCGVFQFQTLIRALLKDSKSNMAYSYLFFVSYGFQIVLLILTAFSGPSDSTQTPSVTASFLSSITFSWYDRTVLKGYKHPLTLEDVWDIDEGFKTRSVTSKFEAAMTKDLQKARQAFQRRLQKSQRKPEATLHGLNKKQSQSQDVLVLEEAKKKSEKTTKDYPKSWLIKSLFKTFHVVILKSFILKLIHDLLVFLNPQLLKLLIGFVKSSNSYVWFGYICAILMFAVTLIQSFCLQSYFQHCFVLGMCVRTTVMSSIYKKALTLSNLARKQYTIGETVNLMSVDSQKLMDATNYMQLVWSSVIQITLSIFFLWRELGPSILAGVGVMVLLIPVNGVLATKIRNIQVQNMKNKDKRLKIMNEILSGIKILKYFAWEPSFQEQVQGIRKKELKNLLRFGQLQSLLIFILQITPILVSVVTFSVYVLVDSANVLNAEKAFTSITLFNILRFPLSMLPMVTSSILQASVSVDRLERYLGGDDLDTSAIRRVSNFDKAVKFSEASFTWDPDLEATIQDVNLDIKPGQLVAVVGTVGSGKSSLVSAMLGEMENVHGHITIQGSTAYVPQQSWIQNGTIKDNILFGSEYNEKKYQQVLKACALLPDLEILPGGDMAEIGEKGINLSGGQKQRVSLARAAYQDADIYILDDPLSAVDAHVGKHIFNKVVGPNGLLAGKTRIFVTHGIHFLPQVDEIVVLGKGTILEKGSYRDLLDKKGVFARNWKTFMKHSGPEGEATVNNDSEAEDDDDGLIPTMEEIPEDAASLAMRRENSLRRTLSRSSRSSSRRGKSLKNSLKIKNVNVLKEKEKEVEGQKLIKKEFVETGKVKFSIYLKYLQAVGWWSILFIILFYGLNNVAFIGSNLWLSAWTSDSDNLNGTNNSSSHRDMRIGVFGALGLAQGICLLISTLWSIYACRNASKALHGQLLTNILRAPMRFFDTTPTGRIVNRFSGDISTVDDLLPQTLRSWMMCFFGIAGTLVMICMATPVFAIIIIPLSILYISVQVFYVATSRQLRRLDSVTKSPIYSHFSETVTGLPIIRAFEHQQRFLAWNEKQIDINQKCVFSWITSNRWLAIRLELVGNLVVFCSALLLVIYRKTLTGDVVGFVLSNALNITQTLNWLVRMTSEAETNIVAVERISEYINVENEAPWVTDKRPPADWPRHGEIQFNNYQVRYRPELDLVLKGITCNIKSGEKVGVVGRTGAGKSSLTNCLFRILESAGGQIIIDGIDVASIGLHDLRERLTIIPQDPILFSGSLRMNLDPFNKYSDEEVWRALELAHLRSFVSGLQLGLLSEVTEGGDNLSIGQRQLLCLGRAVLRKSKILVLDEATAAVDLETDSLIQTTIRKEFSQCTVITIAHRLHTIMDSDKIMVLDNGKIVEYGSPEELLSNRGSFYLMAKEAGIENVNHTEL
Protocol: The perfusion was started with inhibitor solution at a flow rate of 2 mL·min^− 1, and after 30 min, it was replaced with TSG solution to investigate the influences of efflux proteins on TSG.
(§1) 1 mL sample was mixed with equal amount of methanol, filtered through a membrane filter (0.45 μm pore size), and centrifuged at 12000 r·min^− 1 for 10 min. […] The mobile phase consisted of (A) 0.1% formic acid water and (B) acetonitrile. The gradient elution was set as: linear gradient elution 20–35% B (0-15 min) with a flow rate of 1 mL·min^− 1. The injected sample volume was 5 μL. TSG was detected at wavelength of 320 nm and phenol red was detected at wavelength of 430 nm. The concentration of phenol red was used to correct the volume of intestinal circulating fluid. The concentration of TSG and the volume of intestinal circulating fluid in each time period was used to calculate the residual drug amount (X). With the sampling time t as independent variable and lnX as dependent variable, the absorption rate constant Ka was determined from the slope of the straight line. The drug absorption percentage were calculated by the ratio of the change value of the remaining dose of t (h) to the amount of the remaining drug at time 0.
(§2) The absorption rate constants (Ka) and percentage of absorption (PA, %) were calculated using the following eqs. (3), (4), respectively.
(§3) Where X was the residual drug amount, C0 was the drug concentration of intestinal circulation liquid at 0 min, V0 was the drug volume of intestinal circulation liquid at 0 min, Ct was the drug concentration of intestinal circulation liquid at t min, Vt was the drug volume of intestinal circulation liquid at t min, t was the perfusion time.

MRP2 [2] = test: Effect of MRP2 inhibitor on TSG transport across Caco-2 cell monolayer; format: in vitro ADME
Protocol: The effect of efflux protein inhibitors on the intestinal absorption of TSG was studied based on Caco-2 cell monolayer model. […] Before the administration, the inhibitor was added to AP side and BL side, and the plate was placed in an incubator. After 30 min, the inhibitor solution was replaced with TSG solution at concentration of 30 μg·mL^− 1 to inspect the effect of efflux proteins on TSG.
Then, the supernatant was analyzed by HPLC. HPLC separation was performed on Eclipse Plus C18 column (4.6 mm × 250 mm, 5 μm) at 30 °C. The mobile phase consisted of acetonitrile and 0.1% formic acid water (25:75) and the velocity of flow is 1 mL·min^− 1. The injected sample volume was 5 μL. TSG was detected at wavelength of 320 nm.
(§4) (1): 1 Papp=dQ/dt×1/A×1/C0

Caco-2 cell monolayer = test: Bidirectional transport across Caco-2 cell monolayer (Papp); format: in vitro ADME
Protocol: Then, the supernatant was analyzed by HPLC. […] The injected sample volume was 5 μL. TSG was detected at wavelength of 320 nm.
as §4

MRP2 [3] = test: Western blotting, expression of MRP2 in Caco-2 cells after TSG; format: cell-based; settings: TSG 10, 30 and 60 μg·mL^− 1, 4 h; significant at 30 and 60 μg·mL^− 1 (p < 0.05)
Protocol: (§5) When Caco-2 cells grew to 80–90%, the cell were treated with different concentrations (10, 30 and 60 μg·mL^− 1) of TSG and blank medium solution (blank control group). […] The concentration of total proteins was detected by BCA kit, and the supernatant were mix with SDS-PAGE sample buffer after protein quantification, denatured on a heater for 5 min and stored.
(§6) The total proteins were electrophoresed in 10% SDS-PAGE gel and then transferred to PVDF membranes by wet process to block with 5% skim milk for 2 h at room temperature. Membranes were incubated overnight with the following primary antibodies Anti-P glycoprotein antibody (1:2000), Anti-MRP2 antibody (1:500), and GAPDH polyclonal antibody. After that, the membranes were washed with 0.1% TBST for 3 times and 10 min each time and incubated with corresponding secondary antibody (1:5000) for 1 h at room temperature. The OD density values of bands were analyzed using gel imaging and analysis system.

Caco-2 cells = test: MTT cytotoxicity of TSG for Caco-2 cells; format: cell-based
Protocol: (§7) MTT assay was firstly used to investigate the effect of TSG with different concentrations on Caco-2 cells vitality. Briefly, Caco-2 cells were seeded in 96-wells plates at a density of 1 × 10^4 cells per well and placed in a 5% carbon dioxide incubator. After 48 h incubation, the cells were treated with increasing concentrations of TSG (0.75–240 μg·mL^− 1) and DMEM (containing 1%FBS) as a negative control. After 5 h of incubation, 20 μL of 5 mg·mL^− 1 MTT was added to each well, and the plate was incubated at 37 °C for 4 h. Then 150 μL of DMSO was added to each well after the supernatant was discarded. Absorbance was measured at a wavelength of 570 nm.

[4] = MTT cytotoxicity of TSG for Caco-2 cells; format: cell-based; settings: human; Caco-2 cells, 60 μg·mL^− 1 TSG, 5 h, MTT; read-out: cell viability
Protocol: as §7

P-gp = test: Western blotting, expression of P-gp in Caco-2 cells after TSG; format: cell-based; settings: TSG 10, 30 and 60 μg·mL^− 1, 4 h; significant at 60 μg·mL^− 1 (p < 0.05)
Protocol: as §5, §6

[5] = parameters: method as in PMID 23371758; settings: rats plasma, two-compartment model; cited from earlier work
[6] = In situ gastric perfusion of TSG in rats; format: in vivo; settings: rat
Protocol: According to the Chinese Pharmacopoeia, the artificial gastric juice without pepsin is configured under the time limit inspection method of disintegration.
The appropriate amount of TSG was accurately weighed, and the gastric perfusate was prepared at a concentration of 10, 30 and 60 μg·mL^− 1 using artificial gastric juice.
24 SD rats, half male and half female, were fasted for 12 h but permitted to drink water freely before surgery. Rats were anesthetized by intraperitoneal injection of 25% urethane ([…]) and placed in a supine position on the operating table. The abdominal cavity was opened along the midline of the abdomen, then the incision was made at the duodenum and the ileum. The polyethylene tubes were carefully inserted at both sides of the segment and ligatured with a sterile surgical line. […]
1 mL sample was mixed with equal amount of methanol, filtered through a membrane filter (0.45 μm pore size), and centrifuged at 12000 r·min^− 1 for 10 min. […] TSG was detected at wavelength of 320 nm and phenol red was detected at wavelength of 430 nm. […] With the sampling time t as independent variable and lnX as dependent variable, the absorption rate constant Ka was determined from the slope of the straight line. The drug absorption percentage were calculated by the ratio of the change value of the remaining dose of t (h) to the amount of the remaining drug at time 0.

[7] = In situ single-pass intestinal perfusion of TSG in rats (Ka, PA); format: in vivo, rat
Protocol: The proper amount of TSG was accurately weighed, and the intestinal circulation liquid with a concentration of 10, 30 and 60 μg·mL^− 1 was prepared by using a blank intestinal circulation solution.
24 SD rats, half male and half female, were fasted for 12 h but permitted to drink water freely before surgery. Rats were anesthetized by intraperitoneal injection of 25% urethane ([…]) and placed in a supine position on the operating table. The abdominal cavity was opened along the midline of the abdomen, then the incision was made at the duodenum and the ileum. The polyethylene tubes were carefully inserted at both sides of the segment and ligatured with a sterile surgical line. The contents of the intestines were slowly rinsed with 0.9% saline, prewarmed at 37 °C, and the residual liquid in the intestine was drained with air. Afterward, the wound in the abdomen of the rats was covered with a gauze soaked with 37 °C 0.9% saline buffer to moisturize after the operation, warmed with infrared lamp. The intestinal was equilibrated with a drug-containing perfusate (the concentration of TSG was 10, 30 and 60 μg·mL^− 1 respectively) which was preheated at 37 °C at a flow rate of 5 mL·min^− 1. Samples were collected in EP tubes after 10 min, and blank intestinal circulation solution (1 mL) was quickly added to circulatory solution. After that, the flow rate was adjusted to 2 mL·min^− 1, and the samples were taken at 10 min intervals for 4 h. In addition, in order to study the effects of different pH on intestinal absorption of TSG, the pH of the blank intestinal circulation solution was adjusted to 5.4 and 6.4, respectively. Finally, the experimental animals were euthanized by the method of rapid decapitation when the experiment was over. The procedures and precautions for sacrifice were the same as previously described.
as §1, §2, §3

[8] = inhibitor 25 μg·mL^− 1, p < 0.05, rat
[9] = inhibitor 5 μg·mL^− 1, TSG 30 μg·mL^− 1, compared with TSG alone
[10] = inhibitor 25 μg·mL^− 1, TSG 30 μg·mL^− 1, compared with TSG alone

- Ka values of TSG in presence of inhibitor (MRP2 [1]; [8]): significantly enhanced
- PA values of TSG in presence of inhibitor (MRP2 [1]; [8]): significantly enhanced
- increase of Papp values of TSG, AP-BL side (MRP2 [2]; [9]): ~2.22 times
- increase of Papp values of TSG, BL-AP side (MRP2 [2]; [9]): ~1.82 times
- increase of Papp values of TSG, AP-BL side (MRP2 [2]; [10]): ~3.02 times
- increase of Papp values of TSG, BL-AP side (MRP2 [2]; [10]): ~1.91 times
SMILES: CCCN(CCC)S(=O)(=O)c1ccc(C(=O)O)cc1 [probenecid]

- absorption class from Papp (Caco-2 cell monolayer; Caco-2 cell monolayer): moderately absorbed drug
- time at which bilateral Papp values reached the maximum (Caco-2 cell monolayer; after administration, 10, 30 and 60 μg·mL^− 1): 1 h
- substrate of efflux protein MRP2 (MRP2 [1]; conclusion from in situ transport data): may be the substrate
- expression of P-gp in Caco-2 cells (P-gp): increased with concentration
- absorption in stomach ([6]; TSG 10, 30 and 60 μg·mL^− 1): well absorbed
- absorption rate in the intestine ([7]; in situ perfusion, rat): lower than 20%
- Ka between pH 6.4 and 7.4 ([7]; rat intestinal perfusion, p < 0.01): significant increase
- PA value of pH 7.4 versus pH 6.4 and 5.4 ([7]; rat intestinal perfusion, p < 0.05): significantly different
- absorption rate constant (Ka) at 10 μg·mL^− 1 versus 30 and 60 μg·mL^− 1 ([7]; rat small intestine, p < 0.05): significantly greater
- percentage of absorption (PA) at 10 μg·mL^− 1 versus 30 and 60 μg·mL^− 1 ([7]; rat small intestine, p < 0.05): significantly greater
SMILES: OC[C@H]1O[C@@H](Oc2c(O)cc(O)cc2/C=C/c2ccc(O)cc2)[C@H](O)[C@@H](O)[C@@H]1O [TSG, 2,3,5,4′-tetrahydroxystilbene-2-O-β-D-glucoside]
- bilateral (AP-BL and BL-AP) Papp versus concentration (Caco-2 cell monolayer; 10, 30 and 60 μg·mL^− 1): decreased substantially with increasing concentration
- Papp values of bidirectional transport versus pH (Caco-2 cell monolayer; TSG 30 μg·mL^− 1, pH 7.4, 6.4, 5.4): increased significantly with the decrease of pH value
- expression of MRP2 in cells (MRP2 [3]): decreased
- cell viability (Caco-2 cells; Caco-2 cells, TSG more than 60 μg·mL^− 1, MTT): significantly decreased
- toxicity on Caco-2 cells (Caco-2 cells; TSG 0.75–60 μg·mL^− 1, MTT): basically no toxicity
- viability at 5 h, 60 μg·mL^-1 [4]: > 90%
- absorption half-life (t1/2Ka) [5]: 14.80 min
- maximal concentration (Cmax) [5]: 5.70 μg·mL^− 1
- absorption in stomach versus concentration ([6]; TSG 10, 30 and 60 μg·mL^− 1, p < 0.05): increased significantly with concentration
